Patent US6822146B2, “Sulfonylurea-tolerant sunflower line M7” (priority 2000, dated 2004)
Where two headings read alike, the source gives them in different places.

Legend:
BC3-M4M12 = assay: Test A field trial, phytotoxicity, variety I; format: in vivo, sunflower
Description: (§1) To generate the hybrids C, D and E, the fourth generation self-pollinated maintainer mutant lines M4M12, M4M11 and M4M7 were chemically sterilized by applying at the bud “star” flower stage a small amount of gibberellic acid solution to sterilize the pollen according to the general method described in Sunflower Science Technology, J. F. Carter ed. (Number 19 in the series “Agronomy”) pp. 339-386. This treatment enables maintainer plants to behave as CMS inbred lines and allows the production of heterozygous resistant hybrids, with the herbicide resistant source coming from the female side. Such crosses allowed evaluating the sexual effect of the mutation source when introduced on the female side of a cross as described in crosses C, D and E versus the male side of a cross as described in crosses F, G and H. Labels I, J and K identify third generation CMS mutant lines crossed with fourth generation maintainer lines to maintain the highly heritable mutant trait in a male sterile homozygous resistant environment. One skilled in sunflower breeding art understands the meaning of such crosses.
(§2) A rating of 0% phytotoxicity means no crop injury.

BC3-M4M7 = assay: Test A field trial, phytotoxicity, variety K; format: in vivo, sunflower
Description: as §1, §2

BC3-M4M11 = assay: Test A field trial, phytotoxicity, variety J; format: in vivo, sunflower
Description: as §1, §2

BC2-M3M12 = assay: Test G control of volunteer sunflower, BC2-M3M12; format: in vivo; settings: rated 4 weeks after application, scale 0-100
GA-M4M12 × RHA274 = assay: Test A field trial, phytotoxicity, variety C; format: in vivo, sunflower
Description: as §1, §2

H89A × M4M7 = format: in vivo, sunflower; settings: variety H
Description: as §1, §2

[1] = tested on: Inbred line control: H89A; format: in vivo, sunflower; settings: variety B
Description: as §1, §2

[2] = tested on: Hybrid control: H89A × RHA274; format: in vivo, sunflower; settings: variety A
Description: as §1, §2

H89A × M4M12 = format: in vivo, sunflower; settings: variety F
Description: as §1, §2

H89A × M4M11 = format: in vivo, sunflower; settings: variety G
Description: as §1, §2

GA-M4M7 × RHA274 = assay: Test A field trial, phytotoxicity, variety E; format: in vivo, sunflower
Description: as §1, §2

[3] = tested on: mutants originating from M11 and M12; settings: tribenuron-methyl up to 60 g a.i./ha; others at Test G rates
Description: This test involved sulfonylurea-resistant sunflower progeny BC2-M3M11 and BC2-M3M12, derived from M11 and M12, respectively. Also, a sulfonylurea-susceptible hybrid, H89A×RHA274, was included for comparison. Plants were sprayed with formulated herbicides at the 4-leaf stage. The efficacy of the treatments on the sunflowers was visually rated 4 weeks after application, using a scale where 0 means no control of the sunflowers, 85 means sufficient efficacy level to stop plants from flowering and propagating, and 100 means a complete destruction of the mutants.
Weed control in sugar beet requires 2-3 herbicide applications per season to efficiently control weeds in this slow growing crop.

[4] = tested on: H89A × RHA274 (sulfonylurea-susceptible hybrid); assay: Test G control of volunteer sunflower, H89A × RHA274; format: in vivo; settings: rated 4 weeks after application, scale 0-100
BC2-M3M11 = assay: Test G control of volunteer sunflower, BC2-M3M11; format: in vivo; settings: rated 4 weeks after application, scale 0-100
Orobanche cumana = assay: Test E control of Orobanche cumana in resistant sunflower hybrid; format: in vivo; settings: for relative efficacy in controlling Orobanche: Test E rates, metsulfuron-methyl compared with tribenuron-methyl
Summary of the method: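 Resistant sunflower hybrid BC4-M5M12×PHA155 in pots, three replications; herbicides as seed coating, pre-emergence spray 2 days after sowing (high rate, not incorporated), or post-emergence at 4-6, 6-8 (high and low rates) or 8-12 leaf stage. Orobanche nodules scored visually and by root wet mass 35 days after sowing.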

GA-M4M11 × RHA274 = assay: Test A field trial, phytotoxicity, variety D; format: in vivo, sunflower
Description: as §1, §2

[5] = 6 g a.i./ha post-emergence, without Citowet

COC(=O)c1ccccc1S(=O)(=O)NC(=O)Nc1nc(C)nc(OC)n1 [Metsulfuron-methyl, metsulfuron-methyl]
Maximum Phytotoxicity (BC3-M4M12; in vivo): 7% | Maximum Phytotoxicity (BC3-M4M7; in vivo): 8% | Maximum Phytotoxicity (BC3-M4M11; in vivo): 11% | Efficacy on BC2-M3M12 (BC2-M3M12; 4 g a.i./ha): 18 | Maximum Phytotoxicity (GA-M4M12 × RHA274; in vivo): 8% | Maximum Phytotoxicity (H89A × M4M7; [5]): 4% | Maximum Phytotoxicity [1, 5]: 100% | Maximum Phytotoxicity [2, 5]: 100% | Maximum Phytotoxicity (H89A × M4M12; [5]): 4% | Maximum Phytotoxicity (H89A × M4M11; [5]): 6% | Maximum Phytotoxicity (GA-M4M7 × RHA274; in vivo): 0% | resistance/tolerance of the mutants [3]: to a lesser extent than with tribenuron-methyl | Efficacy on H89A × RHA274 ([4]; 4 g a.i./ha): 100 | Efficacy on BC2-M3M11 (BC2-M3M11; 4 g a.i./ha): 8 | relative efficacy in controlling Orobanche (Orobanche cumana): more efficacious in controlling Orobanche | Control (Orobanche cumana; post-emergence 3 + 3 g a.i./ha at T1 + T3): 96% | Control (Orobanche cumana; post-emergence 3 + 3 g a.i./ha at T1 + T3, listed as metsulfuron-methyl): excellent level of Orobanche control | Control (Orobanche cumana; post-emergence 6 g a.i./ha at T2): 97% | Control (Orobanche cumana; pre-emergence 3 + post-emergence 3 g a.i./ha at T2): 87% | Control (Orobanche cumana; pre-emergence 6 g a.i./ha (r19)): 30% | Maximum Phytotoxicity (GA-M4M11 × RHA274; in vivo): 7%

COC(=O)c1ccccc1S(=O)(=O)NC(=O)N(C)c1nc(C)nc(OC)n1 [Tribenuron-methyl, tribenuron-methyl]
Maximum Phytotoxicity (BC3-M4M12; in vivo): 4% | Maximum Phytotoxicity (BC3-M4M7; in vivo): 4% | Maximum Phytotoxicity (BC3-M4M11; in vivo): 0% | Efficacy on BC2-M3M12 (BC2-M3M12; 10 g a.i./ha): 0 | Efficacy on BC2-M3M12 (BC2-M3M12; 20 g a.i./ha): 0 | Efficacy on BC2-M3M12 (BC2-M3M12; 40 g a.i./ha): 0 | Efficacy on BC2-M3M12 (BC2-M3M12; 60 g a.i./ha): 14 | Maximum Phytotoxicity (GA-M4M12 × RHA274; in vivo): 0% | Maximum Phytotoxicity (H89A × M4M7; 22.5 g a.i./ha post-emergence): 0% | Maximum Phytotoxicity ([1]; 22.5 g a.i./ha post-emergence): 100% | Maximum Phytotoxicity ([2]; 22.5 g a.i./ha post-emergence): 100% | Maximum Phytotoxicity (H89A × M4M12; 22.5 g a.i./ha post-emergence): 0% | Maximum Phytotoxicity (H89A × M4M11; 22.5 g a.i./ha post-emergence): 3% | Maximum Phytotoxicity (GA-M4M7 × RHA274; in vivo): 2% | resistance/tolerance of the mutants [3]: excellent to very good level of resistance | Efficacy on H89A × RHA274 ([4]; 10 g a.i./ha, 4-leaf stage): 100 | Efficacy on H89A × RHA274 ([4]; 20 g a.i./ha): 100 | Efficacy on H89A × RHA274 ([4]; 40 g a.i./ha): 100 | Efficacy on H89A × RHA274 ([4]; 60 g a.i./ha): 100 | Efficacy on BC2-M3M11 (BC2-M3M11; 10 g a.i./ha): 0 | Efficacy on BC2-M3M11 (BC2-M3M11; 20 g a.i./ha): 0 | Efficacy on BC2-M3M11 (BC2-M3M11; 40 g a.i./ha): 3 | Efficacy on BC2-M3M11 (BC2-M3M11; 60 g a.i./ha): 10 | Control (Orobanche cumana; 22.5 g a.i./ha printed in pre-emergence column (first such row, r7), host BC4-M5M12 × PHA155): 70% | Control (Orobanche cumana; post-emergence 11.25 + 11.25 g a.i./ha at T1 + T3): 90% | Control (Orobanche cumana; post-emergence 22.5 g a.i./ha at T2): 75% | Control (Orobanche cumana; pre-emergence 11.25 + post-emergence 11.25 g a.i./ha at T2): 78% | Control (Orobanche cumana; pre-emergence 22.5 g a.i./ha (r18)): 0% | Control (Orobanche cumana; seed coating 11.25 + post-emergence 11.25 g a.i./ha at T2): 88% | Maximum Phytotoxicity (GA-M4M11 × RHA274; in vivo): 6%

COC(=O)c1cccc(C)c1S(=O)(=O)NC(=O)Nc1nc(OCC(F)(F)F)nc(N(C)C)n1 [Triflusulfuron-methyl, triflusulfuron-methyl]
Maximum Phytotoxicity (BC3-M4M12; variety I, 20 g a.i./ha post-emergence): 4% | Maximum Phytotoxicity (BC3-M4M12; variety I, 40 g a.i./ha post-emergence): 13% | Maximum Phytotoxicity (BC3-M4M7; variety K, 20 g a.i./ha post-emergence): 8% | Maximum Phytotoxicity (BC3-M4M7; variety K, 40 g a.i./ha post-emergence): 10% | Maximum Phytotoxicity (BC3-M4M11; variety J, 20 g a.i./ha post-emergence): 6% | Maximum Phytotoxicity (BC3-M4M11; variety J, 40 g a.i./ha post-emergence): 14% | Efficacy on BC2-M3M12 (BC2-M3M12; 15 g a.i./ha): 8 | Maximum Phytotoxicity (GA-M4M12 × RHA274; variety C, 20 g a.i./ha post-emergence): 19% | Maximum Phytotoxicity (GA-M4M12 × RHA274; variety C, 40 g a.i./ha post-emergence): 38% | Maximum Phytotoxicity (H89A × M4M7; 20 g a.i./ha post-emergence): 10% | Maximum Phytotoxicity (H89A × M4M7; 40 g a.i./ha post-emergence): 33% | Maximum Phytotoxicity ([1]; 20 g a.i./ha post-emergence): 100% | Maximum Phytotoxicity ([1]; 40 g a.i./ha post-emergence): 100% | Maximum Phytotoxicity ([2]; 20 g a.i./ha post-emergence): 100% | Maximum Phytotoxicity ([2]; 40 g a.i./ha post-emergence): 100% | Maximum Phytotoxicity (H89A × M4M12; 20 g a.i./ha post-emergence): 16% | Maximum Phytotoxicity (H89A × M4M12; 40 g a.i./ha post-emergence): 33% | Maximum Phytotoxicity (H89A × M4M11; 20 g a.i./ha post-emergence): 15% | Maximum Phytotoxicity (H89A × M4M11; 40 g a.i./ha post-emergence): 36% | Maximum Phytotoxicity (GA-M4M7 × RHA274; variety E, 20 g a.i./ha post-emergence): 20% | Maximum Phytotoxicity (GA-M4M7 × RHA274; variety E, 40 g a.i./ha post-emergence): 38% | resistance/tolerance of the mutants [3]: to a lesser extent than with tribenuron-methyl | Efficacy on H89A × RHA274 ([4]; 15 g a.i./ha): 82 | Efficacy on BC2-M3M11 (BC2-M3M11; 15 g a.i./ha): 13 | relative efficacy in controlling Orobanche (Orobanche cumana): less efficacious in controlling Orobanche | Control (Orobanche cumana; post-emergence 18.75 g a.i./ha at T2): 75% | Maximum Phytotoxicity (GA-M4M11 × RHA274; variety D, 20 g a.i./ha post-emergence): 19% | Maximum Phytotoxicity (GA-M4M11 × RHA274; variety D, 40 g a.i./ha post-emergence): 40%
